{
  "source": "patent US20110212106A1",
  "about": "“HIV-1 NE[…] USES THEREOF” (priority 2010, published 2011)",
  "key": {"[1]": {"test_system": "HIV-1 pseudoviruses in HOS-CD4-CCR5 cells", "details": "for IC50: Table 7, HOS", "method": "To measure the neutralization activity of the isolated mAbs, luciferase-encoding virions pseudotyped with the desired HIV-1 Env proteins were used in a single-cycle infectivity assay, as previously described (Gorny M K, et al. (2002) J Virol 76: 9035-9045). Briefly, appropriate dilutions of the virion-containing culture supernatants were pre-incubated at 37° C. for 1 h with mAbs at various concentrations. The virus-mAb mixtures were added to HOS-CD4-CCR5 cells and incubated for 3 days at 37° C. A similar protocol was used for supernatants screening using TZM-bl cells (Li M, et al. (2006) J Virol 80: 11776-11790). The cells were then lysed with Britelite reagent (Perkin-Elmer) and the relative light units in the cell lysates were determined on a luminometer microplate reader (Veritas, Turner Biosystems). The 50% inhibitory dose (IC50) was defined as the sample concentration at which relative luminescence units were reduced 50% compared to virus control wells.\nThe neutralizing activity of the mAbs was measured using 20 pseudotyped HIV-1 primary isolate envs characterized by different sensitivity to neutralization (Li M, et al. (2005) J Virol 79: 10108-10125; Li M, et al. (2006) J Virol 80: 11776-11790). The mAbs were tested at a fixed concentration (100 μg/ml) in the luciferase based neutralization assay using HOS-CD4.R5 as target cells."}, "gp120 binding to sCD4": {"test_system": "gp120 binding to sCD4", "details": "inhibition of sCD4 binding", "experimental": "Shown is mean±SD of triplicates.\nThe ability of mAbs to inhibit binding of sCD4 to gp120 or gp140 was evaluated by ELISA. Serial dilutions of mAbs were pre-incubated with gp120 (or gp140) and added to plates pre-coated with sCD4. After 1 h plates were washed and incubated with sheep polyclonal antibody D7324 (Aalto Bio-Reagents) followed by washing, incubation with AP-conjugated rabbit anti-sheep IgG antibody (Abcam, Cambridge, UK), extensive washing and detection using p-NPP (Sigma) as substrate."}, "[2]": {"test_system": "HIV-1 pseudoviruses in TZM-bl cells", "details": "for IC50: Table 7, TZMbl"}, "[3]": {"test_system": "primary replication competent HIV-1 isolates"}},
  "note": "Several values for one entry are separate records, joined by “and”; a condition that tells them apart may be missing. Equal values may be shown once. Read-outs that look alike come from different tables or passages of the source.",
  "data": [
    {"substance": "HJ16: human mAb from clade C donor, CD4 binding site proximal epitope; VH SEQ ID NO: 13, VL SEQ ID NO: 14", "values": [
      {"measurement": "Neutralization HOS (number of isolates neutralized)", "setting": "[1]; HOS-based assay, isolates neutralized/isolates tested", "value": "10/20"},
      {"measurement": "pseudoviruses neutralized out of the 20 pseudoviruses", "setting": "[1]; mAb at fixed concentration 100 μg/ml", "value": 10},
      {"measurement": "Cross-competition with: sCD4", "setting": "gp120 binding to sCD4", "value": "+ (+,90-100% inhibition)"},
      {"measurement": "plateau of heterologous inhibition in cross-competition of HJ16 and b12", "setting": "gp120; binding to immobilized gp120", "value": "approximately 80%"},
      {"measurement": "Cross-competition with: 2G12", "setting": "gp120; inhibition of biotinylated mAb 2G12 binding to immobilized gp120", "value": "− (−, <50% inhibition)"},
      {"measurement": "Cross-competition with: HGA9", "setting": "gp120; inhibition of biotinylated mAb HGA9 binding to immobilized gp120", "value": "− (−, <50% inhibition)"},
      {"measurement": "Cross-competition with: HJ16", "setting": "gp120; inhibition of biotinylated mAb HJ16 binding to immobilized gp120", "value": "+ (+,90-100% inhibition)"},
      {"measurement": "Percentage of HIV-1 isolates neutralized", "setting": "[2]; All (92)", "value": 36, "unit": "%"},
      {"measurement": "Neutralization TZM-bl (number of isolates neutralized)", "setting": "[2]; TZM-bl based assay, isolates neutralized/isolates tested", "value": "33/92"},
      {"measurement": "Percentage of HIV-1 isolates neutralized", "setting": "[2]; Tier 1 (10)", "value": 10, "unit": "%"},
      {"measurement": "Percentage of HIV-1 isolates neutralized", "setting": "[2]; Tier 1 + Tier 2, Clade A (8)", "value": 25, "unit": "%"},
      {"measurement": "Percentage of HIV-1 isolates neutralized", "setting": "[2]; Tier 1 + Tier 2, Clade AD (1)", "value": 100, "unit": "%"},
      {"measurement": "Percentage of HIV-1 isolates neutralized", "setting": "[2]; Tier 1 + Tier 2, Clade AG (16)", "value": 50, "unit": "%"},
      {"measurement": "Percentage of HIV-1 isolates neutralized", "setting": "[2]; Tier 1 + Tier 2, Clade B (29)", "value": 34, "unit": "%"},
      {"measurement": "Percentage of HIV-1 isolates neutralized", "setting": "[2]; Tier 1 + Tier 2, Clade BC (11)", "value": 45, "unit": "%"},
      {"measurement": "Percentage of HIV-1 isolates neutralized", "setting": "[2]; Tier 1 + Tier 2, Clade C (26)", "value": 27, "unit": "%"},
      {"measurement": "Percentage of HIV-1 isolates neutralized", "setting": "[2]; Tier 1 + Tier 2, Clade G (1)", "value": 0, "unit": "%"},
      {"measurement": "Percentage of HIV-1 isolates neutralized", "setting": "[2]; Tier 2 (82)", "value": 39, "unit": "%"},
      {"measurement": "Percentage of HIV-1 isolates neutralized", "setting": "[2]; Tier 2, Clade A (5)", "value": 20, "unit": "%"},
      {"measurement": "Percentage of HIV-1 isolates neutralized", "setting": "[2]; Tier 2, Clade AD (1)", "value": 100, "unit": "%"},
      {"measurement": "Percentage of HIV-1 isolates neutralized", "setting": "[2]; Tier 2, Clade AG (16)", "value": 50, "unit": "%"},
      {"measurement": "Percentage of HIV-1 isolates neutralized", "setting": "[2]; Tier 2, Clade B (24)", "value": 42, "unit": "%"},
      {"measurement": "Percentage of HIV-1 isolates neutralized", "setting": "[2]; Tier 2, Clade BC (11)", "value": 45, "unit": "%"},
      {"measurement": "Percentage of HIV-1 isolates neutralized", "setting": "[2]; Tier 2, Clade C (24)", "value": 29, "unit": "%"},
      {"measurement": "Percentage of HIV-1 isolates neutralized", "setting": "[2]; Tier 2, Clade G (1)", "value": 0, "unit": "%"},
      {"measurement": "Tier-2 isolates neutralized by HJ16 that were not neutralized by b12", "setting": "[2]; of 32 neutralized", "value": "22/32"},
      {"measurement": "Tier-1 viruses neutralized", "setting": "[2]; panel of 10 Tier-1 isolates", "value": "1 out of 10 and 1/10"},
      {"measurement": "Tier-2 pseudoviruses neutralized", "setting": "[2]; panel of 82 Tier-2 isolates", "value": "32/82"}
    ]},
    {"substance": "enfuvirtide", "values": [
      {"measurement": "IC50", "setting": "[1]; 96ZM651.2, clade C", "value": 0.6, "unit": "nM"},
      {"measurement": "IC50", "setting": "[1]; 263-8, clade AG", "value": 0.04, "unit": "nM"},
      {"measurement": "IC50", "setting": "[1]; AC10.0.29, clade B", "value": 1.2, "unit": "nM"},
      {"measurement": "IC50", "setting": "[1]; BaL.26, clade B", "value": 1.4, "unit": "nM"},
      {"measurement": "IC50", "setting": "[1]; CAP210.2.00.E8, clade C", "value": 6, "unit": "nM"},
      {"measurement": "IC50", "setting": "[1]; CH064.20, clade BC", "value": 0.7, "unit": "nM"},
      {"measurement": "IC50", "setting": "[1]; CH110.2, clade BC", "value": 0.335, "unit": "nM"},
      {"measurement": "IC50", "setting": "[1]; CH181.12, clade BC", "value": 1.8, "unit": "nM"},
      {"measurement": "IC50", "setting": "[1]; Du151.2, clade C", "value": 0.6, "unit": "nM"},
      {"measurement": "IC50", "setting": "[1]; JR-FL, clade B", "value": 1.9, "unit": "nM"},
      {"measurement": "IC50", "setting": "[1]; MW965.26, clade C", "value": 0.6, "unit": "nM"},
      {"measurement": "IC50", "setting": "[1]; Q168.a2, clade AD", "value": 5.7, "unit": "nM"},
      {"measurement": "IC50", "setting": "[1]; Q461.e2, clade A", "value": 1.6, "unit": "nM"},
      {"measurement": "IC50", "setting": "[1]; Q769.d22, clade A", "value": 1.7, "unit": "nM"},
      {"measurement": "IC50", "setting": "[1]; RHPA4259.7, clade B", "value": 1.9, "unit": "nM"},
      {"measurement": "IC50", "setting": "[1]; SF162, clade B", "value": 6.8, "unit": "nM"},
      {"measurement": "IC50", "setting": "[1]; SS1196.1, clade B", "value": 0.9, "unit": "nM"},
      {"measurement": "IC50", "setting": "[1]; T257-31, clade AG", "value": 2.76, "unit": "nM"},
      {"measurement": "IC50", "setting": "[1]; ZM53M.PB12, clade C", "value": 6.1, "unit": "nM"},
      {"measurement": "IC50", "setting": "[1]; ZM214M.PL15, clade C", "value": 4.42, "unit": "nM"},
      {"measurement": "IC50", "setting": "[2]; 96ZM651.2, clade C", "value": 8.9, "unit": "nM"},
      {"measurement": "IC50", "setting": "[2]; 263-8, clade AG", "value": "< 2.23", "unit": "nM"},
      {"measurement": "IC50", "setting": "[2]; AC10.0.29, clade B", "value": 6.68, "unit": "nM"},
      {"measurement": "IC50", "setting": "[2]; BaL.26, clade B", "value": 6.68, "unit": "nM"},
      {"measurement": "IC50", "setting": "[2]; CAP210.2.00.E8, clade C", "value": 13.4, "unit": "nM"},
      {"measurement": "IC50", "setting": "[2]; CH064.20, clade BC", "value": "< 2.23", "unit": "nM"},
      {"measurement": "IC50", "setting": "[2]; CH110.2, clade BC", "value": "< 2.23", "unit": "nM"},
      {"measurement": "IC50", "setting": "[2]; CH181.12, clade BC", "value": "< 2.23", "unit": "nM"},
      {"measurement": "IC50", "setting": "[2]; Du151.2, clade C", "value": "< 2.23", "unit": "nM"},
      {"measurement": "IC50", "setting": "[2]; Q168.a2, clade AD", "value": 8.9, "unit": "nM"},
      {"measurement": "IC50", "setting": "[2]; Q461.e2, clade A", "value": 6.68, "unit": "nM"},
      {"measurement": "IC50", "setting": "[2]; Q769.d22, clade A", "value": 20, "unit": "nM"},
      {"measurement": "IC50", "setting": "[2]; RHPA4259.7, clade B", "value": 8.9, "unit": "nM"},
      {"measurement": "IC50", "setting": "[2]; SF162, clade B", "value": 20, "unit": "nM"},
      {"measurement": "IC50", "setting": "[2]; SS1196.1, clade B", "value": 4.45, "unit": "nM"},
      {"measurement": "IC50", "setting": "[2]; T257-31, clade AG", "value": "< 2.23", "unit": "nM"},
      {"measurement": "IC50", "setting": "[2]; ZM53M.PB12, clade C", "value": "< 2.23", "unit": "nM"},
      {"measurement": "IC50", "setting": "[2]; ZM214M.PL15, clade C", "value": 17.8, "unit": "nM"},
      {"measurement": "IC50", "setting": "[3]; 92BR025, clade C", "value": "< 16", "unit": "nM"},
      {"measurement": "IC90", "setting": "[3]; 92BR025, clade C", "value": 29, "unit": "nM"},
      {"measurement": "IC50", "setting": "[3]; 92RW009, clade A", "value": "< 16", "unit": "nM"},
      {"measurement": "IC90", "setting": "[3]; 92RW009, clade A", "value": 44, "unit": "nM"},
      {"measurement": "IC50", "setting": "[3]; 92UG024, clade D", "value": 16, "unit": "nM"},
      {"measurement": "IC90", "setting": "[3]; 92UG024, clade D", "value": 48, "unit": "nM"},
      {"measurement": "IC50", "setting": "[3]; J213, clade B", "value": 35, "unit": "nM"},
      {"measurement": "IC90", "setting": "[3]; J213, clade B", "value": 192, "unit": "nM"},
      {"measurement": "IC50", "setting": "[3]; MN(P), clade B", "value": 39, "unit": "nM"},
      {"measurement": "IC90", "setting": "[3]; MN(P), clade B", "value": 63, "unit": "nM"},
      {"measurement": "IC50", "setting": "[3]; QH0692, clade B", "value": 78, "unit": "nM"},
      {"measurement": "IC90", "setting": "[3]; QH0692, clade B", "value": 207, "unit": "nM"},
      {"measurement": "IC50", "setting": "[3]; VI 191, clade A", "value": 32, "unit": "nM"},
      {"measurement": "IC90", "setting": "[3]; VI 191, clade A", "value": 56, "unit": "nM"}
    ]}
  ]
}
